Test results published in patent US8518973B2, “Compounds having 4-pyridylalkylthio group as a substituent” (Santen Pharmaceutical Co., Ltd., priority 2003, dated 2013).

What follows are compounds tested on VEGF-induced HUVEC growth (assay: VEGF-induced HUVEC growth reaction evaluation system (cell growth inhibitory action test)). Details: Homo sapiens, 72 h, 20 μg/ml test compound solution added 5 μl per well (100 μl), VEGF solution 400 ng/ml 5 μl per well, three days, absorbance at 450 nm, read-out: Cell growth inhibition rate (%).
Format: cell-based
Protocol: Cell growth inhibitory action tests were carried out using a VEGF-induced HUVEC growth reaction evaluation system (HUVEC stands for human umbilical vein endothelial cells), which is one of widely-used methods of evaluating in vitro angiogenesis inhibitory effects of drugs.
As one of widely-used methods of evaluating angiogenesis inhibitory effects of drugs, a cell growth inhibitory action test using a VEGF-induced HUVEC growth reaction evaluation system was reported in Cancer Res., 59, 99-106(1999). According to the method described in the above-mentioned literature, cell growth inhibitory action tests of the present compounds were carried out, their cell growth inhibition rates were calculated, and angiogenesis inhibitory effects of the present compounds were evaluated using the obtained rates as indexes.
Each test compound was dissolved in dimethyl sulfoxide (hereinafter abbreviated as “DMSO”), and the obtained solution was diluted with commercially available phosphoric acid buffer solution (hereinafter abbreviated as “PBS”) to prepare a 20 μg/ml test compound solution.
HUVEC was suspended in a 0.5% fetal bovine serum (hereinafter abbreviated as “FBS”)-containing F12K medium to prepare a 2×10^4 cells/ml HUVEC suspension.
VEGF was dissolved in 0.1% bovine serum albumin-containing PBS, and the obtained solution was diluted with the 0.5% FBS-containing F12K medium to prepare a 400 ng/ml VEGF solution.
• 1) The HUVEC suspension was inoculated in each amount of 100 μl into each well of a 96-well plate coated with I type collagen (2×10^3 cells per well). • 2) One day after inoculation, the test compound solution was added in an amount of 5 μl per well. • 3) One hour after adding the test compound solution, the VEGF solution was added in an amount of 5 μl per well. • 4) Three days after adding the VEGF solution, cell counting kit-8(Dojin Chemical Co., Ltd.) was added in an amount of 10 μl per well. • 5) After three hours, the above-mentioned plate was attached to an absorptiometer (multi label counter ARVO), and absorbance at 450 nm of each well suspension (hereinafter referred to as “test compound suspension”) was measured. • 6) A test was carried out in the same manner as in 1) to 5) except that 1.0% DMSO was used instead of the test compound solution.
Incubation was carried out under conditions of 37° C., 5% carbon dioxide and 95% air in an incubator throughout the above-mentioned test steps.
Cell growth inhibition rates, which are indexes of angiogenesis inhibitory effects, were calculated by the following calculation equation.

`Cc1cc(C)cc(NC(=O)c2cccnc2SCc2ccncc2Cl)c1` [1-228, 2-(3-Chloropyridin-4-ylmethylthio)-N-(3,5-dimethylphenyl)pyridine-3-carboxamide] and `O=C(Nc1cc(Cl)cc(Cl)c1)c1cccnc1SCc1ccncc1` [1-84, N-(3,5-Dichlorophenyl)-2-(4-pyridylmethylthio)pyridine-3-carboxamide] are the same in inhibition at 20 µg/mL (stock): 100% for the first, 100% for the second.

First: O=C(Nc1ccc(Cl)cc1)c1cccnc1SCc1cc[n+]([O-])cc1 [4-1, N-(4-Chlorophenyl)-2-(1-oxopyridin-4-ylmethylthio)pyridine-3-carb oxamide]
Second: CC(C)(C)c1ccc(NC(=O)c2cccnc2SCc2cc[n+]([O-])cc2)cc1 [4-10, N-(4-tert-Butylphenyl)-2-(1-oxopyridin-4-ylmethylthio)pyridine-3-carboxamide]
The inhibition at 20 µg/mL (stock) of the first is lower: 93% for the first, 100% for the second.

First: O=C(Nc1ccc2c(c1)CCC2)c1ccsc1SCc1ccncc1 [1-287, N-(5-Indanyl)-2-(4-pyridylmethylthio)thiophene-3-carboxamide]
Second: Cc1cccc(NC(=O)c2ccsc2SCc2ccncc2)c1 [1-285, N-(3-Methylphenyl)-2-(4-pyridylmethylthio)thiophene-3-carboxamide]
The inhibition at 20 µg/mL (stock) of the first is lower: 95% for the first, 100% for the second.

Compared with `CC(Sc1ncccc1C(=O)Nc1cccc(Cl)c1)c1ccncc1` (stereo not shown) [5-2, N-(3-Chlorophenyl)-2-[1-(4-pyridyl)ethylthio]pyridine-3-carboxamide], `CC(C)c1cccc(NC(=O)c2cccnc2SCc2ccncc2)c1` [1-35, N-(3-Isopropylphenyl)-2-(4-pyridylmethylthio)pyridine-3-carboxamide] is higher in inhibition at 20 µg/mL (stock): 96% for the first, 100% for the second.

`O=C(Nc1ccc2c(c1)CCC2)c1cccnc1SCc1ccnc(Cl)c1` [1-216, 2-(2-Chloropyridin-4-ylmethylthio)-N-(5-indanyl)pyridine-3-carboxamide] and `Cc1cc(NC(=O)c2cccnc2SCc2ccncc2)ccc1Cl` [1-79, N-(4-Chloro-3-methylphenyl)-2-(4-pyridylmethylthio)pyridine-3-carboxamide] are the same in inhibition at 20 µg/mL (stock): 100% for the first, 100% for the second.

`CC(C)c1cccc(NC(=O)c2cccnc2SCc2cc[n+]([O-])cc2)c1` [4-6, N-(3-Isopropylphenyl)-2-(1-oxopyridin-4-ylmethylthio)pyridine-3-carboxamide] and `Cc1ccc(NC(=O)c2cccnc2SCc2cc[n+]([O-])cc2)cc1C` [4-5, N-(3,4-Dimethylphenyl)-2-(1-oxopyridin-4-ylmethylthio)pyridine-3-carboxamide] are the same in inhibition at 20 µg/mL (stock): 100% for the first, 100% for the second.

Going from `O=C(Nc1ccc(C(F)(F)F)cc1)c1sccc1SCc1ccncc1` [1-255, 3-(4-Pyridylmethylthio)-N-(4-trifluoromethylphenyl)thiophene-2-carboxamide] to `O=C(Nc1cccc(C(F)(F)F)c1)c1sccc1SCc1ccncc1` [1-276, 3-(4-Pyridylmethylthio)-N-(3-trifluoromethylphenyl)thiophene-2-carboxamide], the inhibition at 20 µg/mL (stock) rises from 85% to 100%.

Compared with `CCCc1ccc(NC(=O)c2cccnc2SCc2ccncc2)cc1` [1-49, N-(4-n-Propylphenyl)-2-(4-pyridylmethylthio)pyridine-3-carboxamide], `O=C(Nc1ccc(Cl)cc1F)c1cccnc1SCc1ccncc1` [1-69, N-(4-Chloro-2-fluorophenyl)-2-(4-pyridylmethylthio)pyridine-3-carboxamide] is lower in inhibition at 20 µg/mL (stock): 100% for the first, 95% for the second.

Going from `O=C(Nc1ccc(F)c(F)c1)c1sccc1SCc1ccncc1` [1-269, N-(3,4-Difluorophenyl)-3-(4-pyridylmethylthio)thiophene-2-carboxamide] to `Cc1cccc(NC(=O)c2sccc2SCc2ccncc2)c1` [1-263, N-(3-Methylphenyl)-3-(4-pyridylmethylthio)thiophene-2-carboxamide], the inhibition at 20 µg/mL (stock) rises from 53% to 100%.

Work on `Cc1cc(NC(=O)c2ccccc2SCc2ccncc2)ccc1Br` [1-111, N-(4-Bromo-3-methylphenyl)-2-(4-pyridylmethylthio)benzamide] yielded an inhibition at 20 µg/mL (stock) of 100%.
